Data as given in patent US8044068B2, “Aminopyrrolidine compound” (Taisho Pharmaceutical Co., Ltd, priority 2006, dated 2011).

Biological target: T1, human MC4 receptor (Homo sapiens, UniProt P32245)
T1 construct: purchased Biolinks K.K; host or cells: HEK-293
Assay: MC4 receptor binding experiment ([125I]Nle4-D-Phe7-α-MSH displacement)
Conditions: human MC4 receptor expressing HEK-293 cell membrane; [125I]Nle4-D-Phe7-α-MSH 0.2 nM, 25° C.
Experimental: The MC4 receptor binding experiment was performed according to the method described in Pharmacology & Toxicology, 79, 161-165, 1996. The human MC4 receptor expressing-cell membrane obtained by expressing the human MC4 receptor in a HEK-293 cell was purchased from Biolinks K.K. The cell membrane was homogenized with 50 mM tris hydrochloride buffer (pH 7.4) containing 2 mM ethylenediaminetetraacetic acid, 10 mM calcium chloride, and 100 μM phenylmethylsulfonyl fluoride. The homogenate was centrifuged at 48,000×g at 4° C. for 20 min. The sediment obtained by centrifugation was rehomogenized with the same buffer, and the homogenate was centrifuged at 48,000×g at 4° C. for 20 min. This procedure was repeated twice. The sediment was suspended in 50 mM tris hydrochloride buffer (pH 7.4) containing 2 mM ethylenediaminetetraacetic acid, 10 mM calcium chloride, 100 μM phenylmethylsulfonyl fluoride, and 0.1% bovine serum albumin at a protein concentration of 100 μg/ml, and the suspension was used as a crude membrane preparation for the binding experiment. The crude membrane preparation (0.25 ml, 25 μg protein) was reacted with [^125I]Nle^4-D-Phe^7-α-MSH (final concentration, 0.2 nM) at 25° C. for 120 min. After completion of the reaction, the reaction solution was filtered by suction, using a cell harvester for the receptor binding experiment, onto a GF/C glass fiber filter paper immersed in 50 mM tris hydrochloride buffer (pH 7.4) containing 0.5% bovine serum for 2 h. Radioactivity on the filter paper was measured using a γ counter. The quantity of binding in the presence of 1 μM Nle^4-D-Phe^7-α-MSH was obtained as nonspecific binding, and specific binding was obtained by deducting the nonspecific binding from the total quantity, binding in the absence of 1 μM Nle^4-D-Phe^7-α-MSH. The test drug was dissolved in 100% DMSO solution and added to the membrane preparation at the same time as [^125I]Nle^4-D-Phe^7-α-MSH. The IC50 value was obtained from the inhibition curve in the range of 10^−10 to 10^−5 M. The binding test results of representative compounds are shown in Table 21 as examples.

T1 sequence (P32245 whole entry): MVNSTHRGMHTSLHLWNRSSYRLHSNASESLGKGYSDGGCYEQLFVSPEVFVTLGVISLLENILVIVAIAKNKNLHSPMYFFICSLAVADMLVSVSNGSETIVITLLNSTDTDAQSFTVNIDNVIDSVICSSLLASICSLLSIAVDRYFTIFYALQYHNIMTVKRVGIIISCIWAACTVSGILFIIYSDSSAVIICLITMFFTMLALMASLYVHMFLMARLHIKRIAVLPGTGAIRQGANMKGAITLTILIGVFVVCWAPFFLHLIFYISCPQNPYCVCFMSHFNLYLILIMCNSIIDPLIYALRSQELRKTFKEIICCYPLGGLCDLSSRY

Structure (SMILES)	IC50 [nM]
CCCN(CC1CC1)c1cc(C)nc(N[C@H]2CCN(C(=O)Cc3ccc(OC(F)(F)F)cc3)C2)n1 [Compound 4-035]	52
CN(C)C(=O)N1CCN(c2nc(N[C@H]3CCN(C(=O)Cc4ccc(OC(F)(F)F)cc4)C3)nc3ccccc23)CC1 [Compound 1-174]	21
COc1ccc2nc(N[C@H]3CCN(C(=O)Cc4ccc(OC(F)(F)F)cc4)C3)nc(N[C@@H]3CCN(C(C)=O)C3)c2c1 [Compound 1-032]	0.4
O=C(Cc1ccccc1-c1ccccc1)N1CC[C@H](Nc2nc(N3CCC(n4ccnc4)CC3)c3ccccc3n2)C1 [Compound 1-095]	22
O=C1CN(c2nc(N[C@H]3CCN(C(=O)Cc4ccccc4-c4ccccc4)C3)nc3ccccc23)CCN1 [Compound 1-128]	7.3
COc1ccc2nc(N[C@H]3CCN(C(=O)Cc4ccc(OC(F)(F)F)cc4)C3)cc(C)c2c1 [Compound 3-023]	2.4
COc1ccc2nc(N[C@H]3CCN(C(=O)Cc4ccc(OC(F)(F)F)cc4)C3)nc(N[C@@H]3CCN(S(C)(=O)=O)C3)c2c1 [Compound 1-040]	0.4
COc1ccc2nc(N[C@H]3CCN(C(=O)Cc4ccc(OC(F)(F)F)cc4)C3)cc(N3CCOCC3)c2c1 [Compound 3-011, (S)-1-(3-(6-methoxy-4-morpholinoquinolin-2-ylamino)pyrrolidin-1-yl)-2-(4-trifluoromethoxyphenyl)ethanone]	6.8
Cc1cc(N2CCCOCC2)nc(N[C@H]2CCN(C(=O)Cc3ccc(OC(F)(F)F)cc3)C2)n1 [Compound 4-058]	28
O=C(c1ccc(F)cc1)C1CCN(c2nc(N[C@H]3CCN(C(=O)Cc4ccccc4-c4ccccc4)C3)nc3ccccc23)CC1 [Compound 1-073]	39
Cc1cc(N[C@H]2CCN(C(=O)C3(c4ccc(Cl)cc4)CC3)C2)nc2ccc(O)cc12 [Compound 3-038]	20

More lines, now with the values ahead:

IC50 [nM]	Structure (SMILES)
94	CS(=O)(=O)C1CCN(c2cc(N[C@H]3CCN(C(=O)Cc4ccc(OC(F)(F)F)cc4)C3)nc3ccsc23)CC1 [Compound 7-002, (S)-1-(3-(7-(4-methylsulfonylpiperidin-1-yl)thieno[3,2-b]pyridin-5-ylamino)pyrrolidin-1-yl)-2-(4-trifluoromethoxyphenyl)ethanone]
0.3	COc1ccc2nc(N[C@@H]3CN(C(=O)Cc4ccc(OC(F)(F)F)cc4)C[C@H]3O)nc(N[C@@H]3CCN(S(C)(=O)=O)C3)c2c1 [Compound 11-012]
21	Cc1cc(N2CCCCC2)nc(N[C@@H]2CN(C(=O)Cc3ccc(OC(F)(F)F)cc3)C[C@H]2O)n1 [Compound 13-005]
19	CO[C@@H]1CN(C(=O)Cc2ccc(OC(F)(F)F)cc2)C[C@H]1Nc1cc(N2CCOCC2)cc(C)n1 [Compound 14-002]
14	Cc1cc(N[C@@H]2CN(C(=O)Cc3ccc(OC(F)(F)F)cc3)C[C@H]2O)nc2ccc(O)cc12 [Compound 12-007]
1.3	CS(=O)(=O)N1CC[C@@H](Nc2nc(N[C@@H]3CN(C(=O)Cc4ccc(OC(F)(F)F)cc4)C[C@H]3O)nc3ccc(Cl)cc23)C1 [Compound 11-008]
25	Cc1cc(N[C@@H]2CCN(S(C)(=O)=O)C2)nc(N[C@@H]2CN(C(=O)Cc3ccc(OC(F)(F)F)cc3)C[C@H]2O)n1 [Compound 13-002]
12	CO[C@@H]1CN(C(=O)Cc2ccc(OC(F)(F)F)cc2)C[C@H]1Nc1cc(C)c2cc(O)ccc2n1 [Compound 12-008, 1-((3R,4R)-3-(6-hydroxy-4-methylquinolin-2-ylamino)-4-methoxypyrrolidin-1-yl)-2-(4-trifluoromethoxyphenyl)ethanone]
9.3	Cc1cc(N2CCS(=O)(=O)CC2)cc(N[C@H]2CCN(C(=O)Cc3ccc(OC(F)(F)F)cc3)C2)n1 [Compound 5-006, 1-((S)-3-(4-(1,1-dioxo-1λ^6-thiomorpholin-4-yl)-6-methylpyridin-2-ylamino)pyrrolidin-1-yl)-2-(4-trifluoromethoxyphenyl)ethanone]
